The source of these data is article PMC9873984, “Membrane cholesterol regulates inhibition and substrate transport by the glycine transporter, GlyT2” (Life Science Alliance, 2023).

Changes are numbered by the printed parent chain. pEC50: −log10 of the molar value.

What is called pEC50 is the EC50 on a negative log10 scale, so that one unit is a factor of ten.

The target of one experiment is T1, GlyT2 F515W mutant (Homo sapiens, UniProt Q9Y345, F515W).
T1 sequence (Q9Y345 1-797 F515W): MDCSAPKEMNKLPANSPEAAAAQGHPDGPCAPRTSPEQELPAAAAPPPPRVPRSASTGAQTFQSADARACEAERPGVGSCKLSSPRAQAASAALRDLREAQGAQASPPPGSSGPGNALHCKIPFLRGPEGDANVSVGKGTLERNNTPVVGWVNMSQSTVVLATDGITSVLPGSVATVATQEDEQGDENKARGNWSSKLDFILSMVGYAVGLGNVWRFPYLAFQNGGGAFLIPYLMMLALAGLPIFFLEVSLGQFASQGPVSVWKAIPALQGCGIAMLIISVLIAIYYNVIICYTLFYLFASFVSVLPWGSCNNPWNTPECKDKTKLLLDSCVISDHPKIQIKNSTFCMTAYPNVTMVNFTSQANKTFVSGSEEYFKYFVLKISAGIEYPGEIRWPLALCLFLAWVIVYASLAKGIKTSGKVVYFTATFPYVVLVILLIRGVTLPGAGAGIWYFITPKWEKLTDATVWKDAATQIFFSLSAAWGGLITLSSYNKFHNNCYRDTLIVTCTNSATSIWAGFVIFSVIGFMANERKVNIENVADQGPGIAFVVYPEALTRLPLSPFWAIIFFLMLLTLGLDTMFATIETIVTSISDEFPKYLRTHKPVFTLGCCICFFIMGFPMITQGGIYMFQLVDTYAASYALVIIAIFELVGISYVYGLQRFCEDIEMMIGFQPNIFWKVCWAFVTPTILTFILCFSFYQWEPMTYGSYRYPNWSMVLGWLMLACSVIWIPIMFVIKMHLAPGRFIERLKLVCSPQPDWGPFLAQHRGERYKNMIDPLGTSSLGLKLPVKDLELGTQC
The settings on record: read-out: Glycine EC50; F515W (TM7). An excerpt:
(§1) GlyT2a (referred to herein as GlyT2) was subcloned into the plasmid oocyte transcription vector (pOTV) for expression in Xenopus laevis oocytes. Oligonucleotide primers incorporating desired mutations were synthesized by Sigma-Aldrich and used to generate point mutations in the GlyT2 cDNA/pOTV construct using the Q5 site-directed mutagenesis kit (New England Biolabs [Genesearch]). Amplified PCR products were transformed into chemically competent E. coli cells and purified using the GeneJET Plasmid Miniprep Kit (Thermo Fisher Scientific). Purified plasmid DNA was sequence-verified by the Australian Genome Research Facility. pOTV constructs were linearized with the restriction enzyme SpeI (New England Biolabs [Genesearch]), and RNA was transcribed by T7 RNA polymerase using the mMESSAGE mMACHINE T7 kit (Thermo Fisher Scientific).
(§2) The transport activity of GlyT2 is an electrogenic process as it couples the transport of glycine to the co-transport of 3 Na^+ and 1 Cl^− and thus can be measured using two-electrode voltage-clamp electrophysiology. Oocytes expressing GlyTs were voltage-clamped at −60 mV, and glycine-induced whole-cell currents were measured using a GeneClamp 500 amplifier (Axon Instruments), and a PowerLab 2/26 chart recorder (ADInstruments) and LabChart Software (ADInstruments).
(§3) Functionality of WT and mutant GlyT2 transporters was assessed by applying increasing concentrations of glycine (1–3,000 µM) in ND96 until a stable current was achieved. Glycine concentrations were applied individually and completely removed from the system via washing with recording buffer before proceeding to the next concentration. EC50 values for each transporter were determined by fitting concentration–response data to the modified Michaelis–Menten equation: I=([Gly].Imax)/(EC50+[Gly]), where I is current in nA, [Gly] is the concentration of glycine, Imax is the current generated by a maximal concentration of glycine, and EC50 is the concentration of glycine that generates a half-maximal current.

For the next experiment, the target named is T2, GlyT2 Y430L mutant (Homo sapiens, UniProt Q9Y345, Y430L).
T2 sequence (Q9Y345 1-797 Y430L): T1 sequence (Q9Y345 1-797 F515W) with Y430L, W515F
The settings on record: read-out: Glycine EC50; Y430L (TM5).
From the text: as §1, §2, §3

In a further experiment the target is GlyT2 F515V mutant (Homo sapiens, UniProt Q9Y345, F515V). The settings on record: read-out: Glycine EC50; F515V (TM7).
Sequence of GlyT2 F515V mutant (Q9Y345 whole entry F515V): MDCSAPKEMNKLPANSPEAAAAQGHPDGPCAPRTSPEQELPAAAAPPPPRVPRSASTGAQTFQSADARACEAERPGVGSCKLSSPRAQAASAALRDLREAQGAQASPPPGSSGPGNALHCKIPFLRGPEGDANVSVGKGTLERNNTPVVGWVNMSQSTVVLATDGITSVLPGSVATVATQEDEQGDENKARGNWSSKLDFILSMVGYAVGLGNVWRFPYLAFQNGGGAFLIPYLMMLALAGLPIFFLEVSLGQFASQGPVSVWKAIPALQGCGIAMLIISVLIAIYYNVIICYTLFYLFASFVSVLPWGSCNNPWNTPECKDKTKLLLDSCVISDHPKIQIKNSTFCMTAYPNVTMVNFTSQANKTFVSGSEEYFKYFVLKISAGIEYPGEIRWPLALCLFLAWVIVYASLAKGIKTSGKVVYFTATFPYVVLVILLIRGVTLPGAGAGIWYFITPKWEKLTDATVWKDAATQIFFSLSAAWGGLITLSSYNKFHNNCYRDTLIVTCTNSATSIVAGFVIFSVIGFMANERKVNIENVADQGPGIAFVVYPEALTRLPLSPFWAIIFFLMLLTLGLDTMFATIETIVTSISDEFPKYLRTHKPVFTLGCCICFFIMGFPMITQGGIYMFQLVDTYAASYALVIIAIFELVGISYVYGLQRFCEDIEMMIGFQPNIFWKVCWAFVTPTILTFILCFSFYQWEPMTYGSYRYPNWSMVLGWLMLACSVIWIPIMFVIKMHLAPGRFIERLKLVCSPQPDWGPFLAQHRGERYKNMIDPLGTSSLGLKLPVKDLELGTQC
From the text: as §1, §2, §3

Take `NCC(=O)O` [Glycine, glycine]: the negative logarithm of the EC50 (pEC50) was 5.12 at GlyT2 F515W mutant, 4.72 at GlyT2 Y430L mutant and 5.11 on GlyT2 F515V mutant.
